# Reference: PubChem BioAssay (NCI)
#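 Grown in 96-well plates, cells were treated for 48 hours with each compound at five concentrations. Insufficient inhibition: endpoint recorded as highest concentration tested. TGI marks complete inhibition of growth.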
# What was measured:
# Assay in all cases: NCI anticancer screen, dose series, 48 h
# [1] = tested on: RPMI-8226 leukemia
# [2] = tested on: OVCAR-4 ovarian
# [3] = tested on: BT-549 breast
# [4] = tested on: SF-539 CNS
# [5] = tested on: M14 melanoma
# [6] = tested on: KM12 colon
# [7] = tested on: OVCAR-3 ovarian
# [8] = tested on: SF-268 CNS
# [9] = tested on: SK-OV-3 ovarian
# [10] = tested on: HCT-116 colon
# [11] = tested on: SR leukemia
# [12] = tested on: SN12C renal
# [13] = tested on: LOX IMVI melanoma
# [14] = tested on: HCT-15 colon
# [15] = tested on: MALME-3M melanoma
# [16] = tested on: U251 CNS
# [17] = tested on: T-47D breast
# [18] = tested on: OVCAR-5 ovarian
# [19] = tested on: SK-MEL-2 melanoma
# [20] = tested on: TK-10 renal
# [21] = tested on: OVCAR-8 ovarian
# [22] = tested on: A549 NSCLC
# [23] = tested on: IGROV1 ovarian
# [24] = tested on: SNB-75 CNS
# [25] = tested on: RXF 393 renal
# [26] = tested on: UO-31 renal
# [27] = tested on: MDA-N
# [28] = tested on: SW-620 colon
# [29] = tested on: NCI-H226 lung
# [30] = tested on: MCF7 breast
# [31] = tested on: HT29 colon
# [32] = tested on: SK-MEL-5 melanoma
# [33] = tested on: NCI-H522 lung
# [34] = tested on: HL-60(TB) leukemia
# [35] = tested on: DU-145 prostate
# [36] = tested on: SF-295 CNS
# [37] = tested on: ACHN renal
# [38] = tested on: CAKI-1 renal
# [39] = tested on: HOP-62 NSCLC
# [40] = tested on: NCI-H460 lung
# [41] = tested on: NCI-H23 lung
# [42] = tested on: PC-3 prostate
# [43] = tested on: UACC-257 melanoma
# [44] = tested on: A498 renal
# [45] = tested on: MOLT-4 leukemia
# [46] = tested on: HOP-92 NSCLC
# [47] = tested on: SNB-19 CNS
# [48] = tested on: MDA-MB-435
# [49] = tested on: NCI/ADR-RES ovarian
# [50] = tested on: HCC-2998 colon
# [51] = tested on: SK-MEL-28 melanoma
# [52] = tested on: UACC-62 melanoma
# [53] = tested on: MDA-MB-231 breast
# [54] = tested on: 786-0 renal
# [55] = tested on: COLO 205 colon
# [56] = tested on: HS 578T breast
# [57] = tested on: CCRF-CEM leukemia
# [58] = tested on: K-562 leukemia
# [59] = tested on: EKVX NSCLC
compound,measurement,setting,value
O=C1N=C(c2ccccc2)O/C1=C\c1ccccc1,TGI,[1],> 100 µM
same,TGI,[2],> 100 µM
same,TGI,[3],> 100 µM
same,TGI,[4],> 100 µM
same,TGI,[5],> 100 µM
same,TGI,[6],> 100 µM
same,TGI,[7],> 100 µM
same,TGI,[8],> 100 µM
same,TGI,[9],> 100 µM
same,TGI,[10],> 100 µM
same,TGI,[11],> 100 µM
same,TGI,[12],> 100 µM
same,TGI,[13],> 100 µM
same,TGI,[14],> 100 µM
same,TGI,[15],> 100 µM
same,TGI,[16],> 100 µM
same,TGI,[17],> 100 µM
same,TGI,[18],> 100 µM
same,TGI,[19],> 100 µM
same,TGI,[20],> 100 µM
same,TGI,[21],> 100 µM
same,TGI,[22],> 100 µM
same,TGI,[23],> 100 µM
same,TGI,[24],> 100 µM
same,TGI,[25],> 100 µM
same,TGI,[26],> 100 µM
same,TGI,[27],> 100 µM
same,TGI,[28],> 100 µM
same,TGI,[29],> 100 µM
same,TGI,[30],> 100 µM
same,TGI,[31],> 100 µM
same,TGI,[32],> 100 µM
same,TGI,[33],> 100 µM
same,TGI,[34],> 100 µM
same,TGI,[35],> 100 µM
same,TGI,[36],> 100 µM
same,TGI,[37],> 100 µM
same,TGI,[38],> 100 µM
same,TGI,[39],> 100 µM
same,TGI,[40],> 100 µM
same,TGI,[41],> 100 µM
same,TGI,[42],> 100 µM
same,TGI,[43],> 100 µM
same,TGI,[44],> 100 µM
same,TGI,[45],> 100 µM
same,TGI,[46],> 100 µM
same,TGI,[47],> 100 µM
same,TGI,[48],> 100 µM
same,TGI,[49],> 100 µM
same,TGI,[50],> 100 µM
same,TGI,[51],> 100 µM
same,TGI,[52],> 100 µM
same,TGI,[53],> 100 µM
same,TGI,[54],> 100 µM
same,TGI,[55],> 100 µM
same,TGI,[56],> 100 µM
O=C1/C(=C\c2cccc(Oc3ccccc3)c2)SC(c2ccccc2)N1c1ccc(Cl)cc1 (centres undefined),TGI,[1],41.9 µM
same,TGI,[2],> 100 µM
same,TGI,[3],> 100 µM
same,TGI,[4],52.6 µM
same,TGI,[5],> 100 µM
same,TGI,[6],> 100 µM
same,TGI,[7],> 100 µM
same,TGI,[8],> 100 µM
same,TGI,[9],> 100 µM
same,TGI,[10],> 100 µM
same,TGI,[11],> 55.9 µM
same,TGI,[12],> 100 µM
same,TGI,[13],> 100 µM
same,TGI,[14],> 100 µM
same,TGI,[15],> 100 µM
same,TGI,[16],> 100 µM
same,TGI,[17],> 100 µM
same,TGI,[18],> 100 µM
same,TGI,[57],> 63.6 µM
same,TGI,[19],> 100 µM
same,TGI,[20],> 100 µM
same,TGI,[21],> 100 µM
same,TGI,[22],> 100 µM
same,TGI,[24],> 100 µM
same,TGI,[25],> 100 µM
same,TGI,[26],> 100 µM
same,TGI,[27],> 87.9 µM
same,TGI,[28],> 100 µM
same,TGI,[29],> 100 µM
same,TGI,[30],> 100 µM
same,TGI,[31],> 100 µM
same,TGI,[32],> 41.7 µM
same,TGI,[33],96.9 µM
same,TGI,[34],> 100 µM
same,TGI,[35],> 100 µM
same,TGI,[36],> 100 µM
same,TGI,[37],> 100 µM
same,TGI,[38],> 100 µM
same,TGI,[39],> 100 µM
same,TGI,[40],> 100 µM
same,TGI,[41],98.7 µM
same,TGI,[42],> 100 µM
same,TGI,[43],> 100 µM
same,TGI,[58],> 90.8 µM
same,TGI,[44],> 100 µM
same,TGI,[45],> 63.6 µM
same,TGI,[46],> 100 µM
same,TGI,[47],> 100 µM
same,TGI,[48],> 64.3 µM
same,TGI,[49],> 100 µM
same,TGI,[50],> 100 µM
same,TGI,[51],> 100 µM
same,TGI,[52],> 100 µM
same,TGI,[53],> 100 µM
same,TGI,[59],> 100 µM
same,TGI,[54],> 100 µM
same,TGI,[55],> 80.9 µM
same,TGI,[56],> 100 µM
CC1(C)COC(/C=C/C2=NC(C)(C)CO2)=N1,TGI,[1],26.2 µM
same,TGI,[2],99.5 µM
same,TGI,[3],49.8 µM
same,TGI,[4],51.7 µM
same,TGI,[5],31.4 µM
same,TGI,[6],37.1 µM
same,TGI,[7],30.8 µM
same,TGI,[8],75.8 µM
same,TGI,[9],> 100 µM
same,TGI,[10],25.9 µM
same,TGI,[11],27.3 µM
same,TGI,[12],9.89 µM
same,TGI,[13],16.7 µM
same,TGI,[14],34.5 µM
same,TGI,[15],41.9 µM
same,TGI,[16],64.3 µM
same,TGI,[17],34 µM
same,TGI,[18],54.4 µM
same,TGI,[57],28.8 µM
same,TGI,[19],82.9 µM
same,TGI,[20],27.2 µM
same,TGI,[21],51.6 µM
same,TGI,[22],> 100 µM
same,TGI,[23],50.6 µM
same,TGI,[24],> 100 µM
same,TGI,[25],34.5 µM
same,TGI,[26],64.3 µM
same,TGI,[27],48.7 µM
same,TGI,[28],26.9 µM
same,TGI,[29],59.4 µM
same,TGI,[30],33.1 µM
same,TGI,[31],98.4 µM
same,TGI,[32],27.3 µM
same,TGI,[33],13.4 µM
same,TGI,[34],49.4 µM
same,TGI,[35],44.1 µM
same,TGI,[36],> 100 µM
same,TGI,[37],57.3 µM
same,TGI,[38],23.4 µM
same,TGI,[39],55.2 µM
same,TGI,[40],> 100 µM
same,TGI,[41],58.1 µM
same,TGI,[42],51.7 µM
same,TGI,[43],> 100 µM
same,TGI,[58],63.4 µM
same,TGI,[44],25.4 µM
same,TGI,[45],36.1 µM
same,TGI,[46],84.1 µM
same,TGI,[47],> 100 µM
same,TGI,[48],82.9 µM
same,TGI,[49],84 µM
same,TGI,[51],38.1 µM
same,TGI,[52],31.4 µM
same,TGI,[53],44.2 µM
same,TGI,[59],41.8 µM
same,TGI,[55],28.6 µM
same,TGI,[56],23.1 µM
O=[N+]([O-])c1cccc2nccc(NCC(O)CO)c12 (centres undefined),TGI,[1],61.2 µM
same,TGI,[2],43 µM
same,TGI,[3],29.6 µM
same,TGI,[4],36.9 µM
same,TGI,[5],32.9 µM
same,TGI,[6],28.7 µM
same,TGI,[7],33.7 µM
same,TGI,[8],67.9 µM
same,TGI,[9],74.9 µM
same,TGI,[10],26.8 µM
same,TGI,[11],28 µM
same,TGI,[12],41 µM
same,TGI,[13],54.7 µM
same,TGI,[14],22.4 µM
same,TGI,[15],28.4 µM
same,TGI,[16],32.6 µM
same,TGI,[17],96.1 µM
same,TGI,[18],42.1 µM
same,TGI,[57],> 89.9 µM
same,TGI,[19],26 µM
same,TGI,[20],44 µM
same,TGI,[21],33.2 µM
same,TGI,[22],36.4 µM
same,TGI,[23],38.9 µM
same,TGI,[24],> 63.9 µM
same,TGI,[25],26.4 µM
same,TGI,[26],37.2 µM
same,TGI,[27],31.8 µM
same,TGI,[28],36.1 µM
same,TGI,[29],19.4 µM
same,TGI,[30],40 µM
same,TGI,[31],42 µM
same,TGI,[32],25.8 µM
same,TGI,[33],26 µM
same,TGI,[34],49.4 µM
same,TGI,[35],75.6 µM
same,TGI,[36],53.7 µM
same,TGI,[37],45.2 µM
same,TGI,[38],35.8 µM
same,TGI,[39],33.6 µM
same,TGI,[40],26.3 µM
same,TGI,[41],43.1 µM
same,TGI,[42],38.5 µM
same,TGI,[43],30 µM
same,TGI,[58],> 93.3 µM
same,TGI,[44],19.3 µM
same,TGI,[45],> 80.6 µM
same,TGI,[46],53.8 µM
same,TGI,[48],37.8 µM
same,TGI,[49],73.3 µM
same,TGI,[50],25.8 µM
same,TGI,[51],34 µM
same,TGI,[52],31.5 µM
same,TGI,[53],45 µM
same,TGI,[59],27.6 µM
same,TGI,[54],35 µM
same,TGI,[55],33.5 µM
same,TGI,[56],40.7 µM
